Laboratory results as given in ChEMBL document CHEMBL1201862, “PubChem BioAssay data set” (2004).
“And” between values parts separate entries of the source, which are not always exact repeats. Equal entries are not always repeated.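 Compound exposure: 48 hours, 5 concentrations, 96-well plates. GI50 is the concentration that inhibits growth by half.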 The source made the active and inactive calls. Rule as the data show it: active = GI50 up to about 1.1 µM and inactive = higher.

Legend:
Assay in all cases: DTP human tumour cell line panel, 48 h
[1] = tested on: A549
[2] = tested on: ACHN
[3] = tested on: BT-549
[4] = tested on: CAKI-1
[5] = tested on: EKVX
[6] = tested on: HCC 2998
[7] = tested on: Hs-578T
[8] = tested on: KM12
[9] = tested on: MCF7
[10] = tested on: MDA-MB-435
[11] = tested on: Malme-3M
[12] = tested on: NCI-H23
[13] = tested on: OVCAR-5
[14] = tested on: OVCAR-8
[15] = tested on: RXF 393
[16] = tested on: SK-MEL-28
[17] = tested on: SK-MEL-2
[18] = tested on: SN12C
[19] = tested on: SNB-75
[20] = tested on: UO-31

Measured: GI50

C=C1c2nc3ccccc3n2C=C(c2ccc(C)cc2)N1c1ccc(OC)cc1
inactive: [1] 47.5 µM | [2] 61.5 µM | [3] > 82.8 µM | [4] 36.1 µM | [5] 32.5 µM | [6] 31.8 µM | [7] > 77.4 µM | [8] 5.56 µM | [9] 15.3 µM | [10] 3.04 µM | [11] 21.8 µM | [12] > 73.6 µM | [13] > 100 µM | [14] 75.5 µM | [15] > 56.9 µM | [16] > 70.5 µM | [17] 60.7 µM | [18] > 94.4 µM | [19] > 80 µM | [20] 44.5 µM

O=c1ccn(C2OC(CN(O)CCC3C(CO)OC(n4ccc(=O)[nH]c4=O)C3O)C(O)C2O)c(=O)[nH]1 (stereo not given)
inactive: [1] > 100 µM | [2] > 100 µM | [3] > 100 µM | [4] > 100 µM | [5] > 100 µM | [6] > 100 µM | [7] > 100 µM | [8] > 100 µM | [9] > 100 µM | [10] > 100 µM | [11] > 100 µM | [12] > 100 µM | [13] > 100 µM | [14] > 100 µM | [15] > 100 µM | [16] > 100 µM | [17] > 100 µM | [18] > 100 µM | [19] > 100 µM | [20] > 100 µM

COc1ccc(/C=C2/N/C(=N\N=C/C(O)C(O)C(O)C(O)CO)NC2=O)cc1 (stereo not given)
inactive: [1] > 100 µM | [2] > 100 µM | [3] 82.4 µM and 65.6 µM | [4] > 100 µM | [5] > 100 µM | [6] > 100 µM | [7] > 100 µM | [8] > 100 µM | [9] 40.1 µM | [10] > 100 µM | [11] > 100 µM | [12] > 100 µM | [13] > 100 µM | [14] > 100 µM | [15] > 100 µM | [16] > 100 µM | [17] > 100 µM | [18] > 100 µM | [19] > 100 µM | [20] > 100 µM

COc1ccc(/N=C(Nc2ccc(OC)cc2)/C(=N/c2ccc(OC)cc2)Nc2ccc(OC)cc2)cc1
inactive: [1] 96.2 µM | [2] > 100 µM | [3] > 100 µM | [4] > 100 µM | [5] > 100 µM | [6] > 100 µM | [7] 37.1 µM | [8] 14.7 µM | [9] > 100 µM | [10] > 100 µM | [11] > 100 µM | [12] > 100 µM | [13] > 100 µM | [14] > 100 µM | [15] > 100 µM | [16] > 100 µM | [17] > 100 µM | [18] > 100 µM | [19] 1.95 µM | [20] 5.25 µM

COCOc1cc(OCOC)cc(C(=O)Oc2ccccc2)c1
inactive: [1] > 100 µM | [2] > 100 µM | [3] > 100 µM | [4] > 100 µM | [5] 91.4 µM | [6] > 100 µM | [7] 43.1 µM | [8] > 100 µM | [9] > 100 µM | [10] > 100 µM | [11] > 100 µM | [12] > 100 µM | [13] > 100 µM | [14] > 100 µM | [15] > 100 µM | [16] > 100 µM | [17] > 100 µM | [18] > 100 µM | [19] 78.3 µM | [20] 78.5 µM

CC(=O)Nc1nc(C)c(S(=O)(=O)NC(=O)NC2NC(=O)NC2=O)s1 (stereo not given)
inactive: [1] > 100 µM | [2] > 100 µM | [3] > 100 µM | [4] > 100 µM | [5] > 100 µM | [6] > 100 µM | [7] > 100 µM | [8] > 100 µM | [9] > 100 µM | [10] > 100 µM | [11] > 100 µM | [12] > 100 µM | [13] > 100 µM | [14] > 100 µM | [15] > 100 µM | [16] > 100 µM | [17] > 100 µM | [18] > 100 µM | [19] > 100 µM | [20] > 100 µM

CCCCCCCCC/C=C1\CC(CO)(COC(=O)C2CCCCC2)OC1=O (stereo not given)
inactive: [1] 19.4 µM | [2] 20 µM | [3] 18.4 µM | [4] 22.9 µM | [5] 17.9 µM | [6] 23.7 µM | [7] 16.4 µM | [8] 20.4 µM | [9] 23.2 µM | [10] 13.5 µM | [11] 15.2 µM | [12] 22.9 µM | [13] 17.8 µM | [14] 15.8 µM | [15] 20.2 µM | [16] 15.6 µM | [17] 18.2 µM | [18] 16.9 µM | [19] 15.8 µM | [20] 20.1 µM
